Values of other authors as cited in patent publication US20230357519A1, “REMOVAL OF ODORANTS FROM POST-CONSUMER POLYOLEFIN WASTE” (Borealis AG, priority 2020, published 2023).

Conditions: octanol/water; not determined experimentally, generally accepted literature values

Row | Structure (SMILES) | log Poctanol/water
1 | C=C(C)[C@H]1CC=C(C)CC1 [D-Limonene] | 4.57^4
2 | CCCCCCCC(C)=O [2-Nonanone] | 3.16^2
3 | CC(O)C(C)O (centres unmarked) [2,3-Butanediol] | −0.92^1
4 | CCCCC(C)CCCC(C)C (centres unmarked) [2,6-Dimethyl decane] | 6.09^6
5 | CCCCC(CC)CO (centres unmarked) [2-Ethyl-1-hexanol] | 2.73^3

Next, values leading:

Row | log Poctanol/water | Structure (SMILES)
6 | 5.03^5 | CCCCC(CCCC)CC(C)C [5-(2-Methylpropyl)-nonane]
7 | 3.05^2 | C=Cc1ccccc1 [Styrene]
8 | 0.84^2 | CCCC(C)=O [2-Pentanone]
